The source of these data is PMC7324897 (Dose-Response, 2020).

“Also recorded” adds a separate entry of the source.

For experiment [1], the target named is BChE (from human serum) (Homo sapiens, UniProt P06276). The experiment can be described thus: In vitro cholinesterase inhibition assay. Format: biochemical.
The target of experiment [2] is BChE (Homo sapiens, UniProt P06276). The experiment can be described thus: Kinetic study of BChE inhibition. Type of experiment: biochemical.
BChE, sequence (P06276 29-602): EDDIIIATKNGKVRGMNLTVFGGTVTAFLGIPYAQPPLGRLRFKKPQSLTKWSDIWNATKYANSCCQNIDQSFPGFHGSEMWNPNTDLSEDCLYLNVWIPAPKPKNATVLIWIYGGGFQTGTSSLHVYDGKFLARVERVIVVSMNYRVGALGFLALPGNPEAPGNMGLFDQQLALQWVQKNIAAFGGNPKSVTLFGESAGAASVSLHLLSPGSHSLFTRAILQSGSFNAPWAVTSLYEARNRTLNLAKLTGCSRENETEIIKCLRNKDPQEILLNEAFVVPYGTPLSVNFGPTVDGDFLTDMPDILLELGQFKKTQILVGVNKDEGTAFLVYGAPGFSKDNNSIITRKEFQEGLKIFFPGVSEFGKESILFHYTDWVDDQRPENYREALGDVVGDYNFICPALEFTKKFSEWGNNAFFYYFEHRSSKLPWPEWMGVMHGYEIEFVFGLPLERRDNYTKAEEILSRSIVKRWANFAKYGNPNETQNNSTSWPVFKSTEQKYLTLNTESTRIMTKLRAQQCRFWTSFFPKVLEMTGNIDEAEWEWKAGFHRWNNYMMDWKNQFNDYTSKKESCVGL

BChE (from human serum), sequence (P06276 29-602): as above

In experiment [1], `O=C1CN(C(=O)CCn2ccnc2)CC(O)CN1CCc1ccccc1` (centres unmarked) [Compound 5, 4-(3-(1H-imidazol-1-yl)propanoyl)-6-hydroxy-1-phenethyl-1,4-diazepan-2-one] returned an IC50 of 1400 nM. Also, the inhibition at 10 µM in experiment [1] (read-out: BChE IR (%), inhibition ratio) amounted to 66%. Also, in experiment [2], affinity was put at a Ki of 540 ± 70 nM and the “Type of BChE inhibition” value is recorded as “mixed-type inhibitor; also recorded: mixed-type inhibition”. Also, in experiment [2] (substrate BTC 90-904 μM), the “Inhibition constant Ki, uncompetitive part (Kiu)” value turned out to be 2900 ± 1000 nM.

Usually IC50 stands for the concentration that gives 50% inhibition. The Ki is the equilibrium dissociation constant of an inhibitor or competing ligand from its target.
